Data set [1] has as its system root meristem cells of Allium cepa. Nature of the data set: In vitro antimitotic activity and cytogenetic analysis, Allium cepa meristem root model. Particulars: for Aberrant cells (%) ± SEM / Chromosome breaks (%) ± SEM / MNC (‰) ± SEM (micronuclei per 1,000 cells) / Polar deviations (%) ± SEM / Stickiness (%) ± SEM / MI (%) ± SEM (mitotic index): compounds 1 mg/mL, PC (EMS) 2 × 10^−2 M; for MI (%) ± SEM (mitotic index): lower MI = higher activity, negative control 6.22. The class given is cell-based. The gist of the method: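 Onion roots (about 2–2.5 cm, five bulbs per sample) exposed to compound at 1 mg/mL at 22 ± 1 °C, with distilled water as negative and EMS (2 × 10^−2 M) as positive control. After 24 h, orcein-stained root tips were scored for mitotic index, chromatin aberrations and micronuclei per 1,000 cells. Root length at 72 h served as the general toxicity index, expressed as percentage of controls.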

The subject of data set [2] is BT474 (breast cancer cell line). Nature of the data set: In vitro cytotoxicity by MTT assay, BT474. The class given is cell-based. Particulars: Homo sapiens, 72 h; for cytotoxicity at 0.005 µM: BT-474, 0.005 μM; for cytotoxicity at 0.005 µM / cytotoxicity at 0.015 µM / cytotoxicity at 0.045 µM / cytotoxicity at 0.13 µM / cytotoxicity at 0.41 µM / cytotoxicity at 1.23 µM / cytotoxicity at 3.7 µM / cytotoxicity at 11.11 µM / cytotoxicity at 33.33 µM / cytotoxicity at 100 µM: read-out: % cytotoxicity (100 − % cell survival) of BT474 cell line; for cytotoxicity at 0.015 µM: BT-474, 0.015 μM; for cytotoxicity at 0.045 µM: BT-474, 0.045 μM; for cytotoxicity at 0.13 µM: BT-474, 0.13 μM; for cytotoxicity at 0.41 µM: BT-474, 0.41 μM; for cytotoxicity at 1.23 µM: BT-474, 1.23 μM; for cytotoxicity at 3.7 µM: BT-474, 3.7 μM; for cytotoxicity at 11.11 µM: BT-474, 11.11 μM; for cytotoxicity at 33.33 µM: BT-474, 33.33 μM; for cytotoxicity at 100 µM: BT-474, 100 μM. The gist of the method:
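RPMI-1640, 10 % newborn calf serum; ~10,000 cells/well, 24 h attachment; compound 72 h, 37 °C, 5 % CO2; MTT 4 h; propanol; A490.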

A short description of data set [3]: Lipid peroxidation inhibitory activity (egg lecithin liposomes, TBA). It counts as biochemical. To be noted: Conc. ± SD; standard ascorbic acid; read-out: IC50 inhibitory concentration, Lipid peroxidation. The procedure:
Egg lecithin (3 mg/mL phosphate buffer, pH 7.4) was sonicated in an ultrasonic sonicator for 10 min to ensure proper liposome formation. Test samples or standard, ascorbic acid (100 μL) of different concentrations (10, 20, 30, 40 50 and 100 μg/mL) was added to liposome mixture (1 mL); the control was without test sample. Lipid peroxidation was induced by adding ferric chloride (10 μL, 400 mM) and L-ascorbic acid (10 μL, 200 mM). After incubation for 1 h at 37 °C, the reaction was stopped by adding hydrochloric acid (2 mL, 0.25 N) containing trichloroacetic acid (150 mg/mL), thiobarbituric acid (3.75 mg/mL) and butylated hydroxy anisole (0.50 mg/mL). The reaction mixture was subsequently boiled for 15 min, cooled and centrifuged at 1,000 rpm for 15 min, and the absorbance of the supernatant was measured at 532 nm (Duh and Yen, [1997]). The % inhibition at different concentrations was calculated by the following formula %Inhibition=[1-(Vt/Vc)]×100 where V t = mean absorption of test compound, V c = mean absorption of control.
The IC50 (nM/mL) value was derived from the % inhibition at different concentrations.

As to `O=C(NS(=O)(=O)c1nnc(N=Cc2ccc(O)cc2)s1)c1ccccc1` [Compound 9e, N-({5-[(4-Hydroxybenzylidene)amino]-1,3,4-thiadiazol-2-yl}sulfonyl)benzamide], in data set [1], the “Aberrant cells (%) ± SEM” value was determined as 26.74 ± 6.56%, the “Chromosome breaks (%) ± SEM” value came to 2.72 ± 0.94%, the “MNC (‰) ± SEM (micronuclei per 1,000 cells)” value is listed as 0.21 ± 0.06 ‰ and the “Polar deviations (%) ± SEM” value is 8.41 ± 1.35%. In addition, in data set [1], the “Stickiness (%) ± SEM” value was 9.88 ± 1.46% and the “MI (%) ± SEM (mitotic index)” value was 1.27 ± 0.11%. Further, in data set [2], the cytotoxicity at 0.005 µM was 25.2%, the cytotoxicity at 0.015 µM was 26.4%, the cytotoxicity at 0.045 µM is 27.3% and the cytotoxicity at 0.13 µM came to 28.9%. Further, in data set [2], the cytotoxicity at 0.41 µM amounted to 29.9%, the cytotoxicity at 1.23 µM was 31.9%, the cytotoxicity at 3.7 µM came to 37.9% and the cytotoxicity at 11.11 µM came out at 41.8%. Besides, in data set [2], the cytotoxicity at 33.33 µM worked out at 47.5% and the cytotoxicity at 100 µM was 56.2%. The IC50 in data set [3] was 134 ± 14.7 µM.

Compound `O=C(NS(=O)(=O)c1nnc(N=Cc2ccccc2O)s1)c1ccccc1` [Compound 9f, N-({5-[(2-Hydroxybenzylidene)amino]-1,3,4-thiadiazol-2-yl}sulfonyl)benzamide] gave an average root length in data set [1] (after 72 h of treatment, negative control 3.93 cm) of 1.06 cm. Further, in data set [1], the “Aberrant cells (%) ± SEM” value amounted to 33.41 ± 9.47%, the “Chromosome breaks (%) ± SEM” value worked out at 1.47 ± 0.13%, the “MNC (‰) ± SEM (micronuclei per 1,000 cells)” value is given as 0.39 ± 0.20 ‰ and the “Polar deviations (%) ± SEM” value is reported as 7.33 ± 2.52%. In data set [1], the “Stickiness (%) ± SEM” value amounted to 21.96 ± 7.22%. In data set [2], the cytotoxicity at 0.005 µM turned out to be 30.6%, the cytotoxicity at 0.015 µM is 32.6%, the cytotoxicity at 0.045 µM turned out to be 33.9% and the cytotoxicity at 0.13 µM worked out at 34.8%. In data set [2], the cytotoxicity at 0.41 µM came to 34.8%, the cytotoxicity at 1.23 µM was 35.5%, the cytotoxicity at 3.7 µM stood at 35.8% and the cytotoxicity at 11.11 µM amounted to 36.1%. Also, in data set [2], the cytotoxicity at 33.33 µM was found to be 38.2% and the cytotoxicity at 100 µM is 38.7%. Also, the IC50 in data set [3] is 204 ± 20.1 µM.

For `O=C(NS(=O)(=O)c1nnc(N=Cc2ccc(Cl)cc2)s1)c1ccccc1` [Compound 9b, N-({5-[(4-Chlorobenzylidene)amino]-1,3,4-thiadiazol-2-yl}sulfonyl)benzamide], in data set [1], the “Aberrant cells (%) ± SEM” value was 24.64 ± 7.01%, the “Chromosome breaks (%) ± SEM” value amounted to 3.36 ± 0.57%, the “MNC (‰) ± SEM (micronuclei per 1,000 cells)” value is recorded as 0.42 ± 0.18 ‰ and the “Polar deviations (%) ± SEM” value came out at 7.32 ± 1.24%. Further, in data set [1], the “Stickiness (%) ± SEM” value turned out to be 9.12 ± 1.33% and the “MI (%) ± SEM (mitotic index)” value was 2.77 ± 0.19%. Moreover, in data set [2], the cytotoxicity at 0.005 µM was determined as 38.8%, the cytotoxicity at 0.015 µM is 39.4%, the cytotoxicity at 0.045 µM is 41.5% and the cytotoxicity at 0.13 µM stood at 42%. Besides, in data set [2], the cytotoxicity at 0.41 µM stood at 46.1%, the cytotoxicity at 1.23 µM came out at 50.1%, the cytotoxicity at 3.7 µM was determined as 56.3% and the cytotoxicity at 11.11 µM was found to be 60.7%. Besides, in data set [2], the cytotoxicity at 33.33 µM was 62.3% and the cytotoxicity at 100 µM was determined as 65%. Further, the CC50 in data set [2] (BT-474, BT474, concentration at which 50 % of the cells are dead, read-out: CTC50 (cytotoxicity concentration)) was 2.41 µM. The IC50 in data set [3] was determined as 133 ± 11.5 µM.

(Values after publication PMC3973950, “Synthesis of 5-arylidine amino-1,3,4-thiadiazol-2-[(N-substituted benzyol)]sulphonamides endowed with potent antioxidants and anticancer activity induces growth inhibition in HEK293, BT474 and NCI-H226 cells” (Medicinal Chemistry Research, 2013).)
